In patent US10745731B2, “Recombinant production method” (Hoffmann-La Roche Inc., priority 2015, dated 2020):
Read-outs that look alike come from different tables or passages of the source.

Legend:
HEK293F cells [1] = format: cell-based
Description: (§1) To determine cell viability and viable cell density (VCD) 1 mL cultivation medium (cell suspension) was transferred into a Cedex low fouling sample cup. The cup was placed into a Vicell instrument (Beckman Coulter). The instrument mixes cells with trypan blue to stain dead cells. After analysis of 50 images VCD was calculated and viability was determined by calculation of the percentage of viable cell number in relation to the total cell number.

HDAC [2] = settings: description from the literature; cited from earlier work
HEK293F cells [3] = experiment: Transient gene expression in HEK293F cells: cell specific productivity of the expressed antibody; format: cell-based, human; settings: for specific productivity after 96 hours: none 2.01
Description: HEK293F cells were cultivated in F17 medium (Life Technologies) in shaker flasks at 36.5° C., 7.0% CO2 and 80% humidity in a shaker incubator (Kuhner, Mytron). Cells were split every three to four days and were cultivated no longer than five weeks. To avoid overgrowth and to keep them in the exponential phase of growth, viable cell densities (VCD) never exceeded 60*10^5 cells/mL.
(§2) Transient gene expression is a 5-7 days lasting procedure. The standard operating procedure of this expression system is applicable to shaker flasks with various volumes of cell culture ranging from 80 mL to 2 L. First, half of the cell culture volume is seeded at a viable cell density (VCD) of 8*10^5 cells/mL. After two days of cultivation, cells are split to a VCD of about 12*10^5 cells/mL. On the next day, cells are transfected with a polyethylene imine (PEI)-based transfection reagent at a VCD between 20*10^5 cells/mL and 25*10^5 cells/mL. 3 hours after transfection, the production enhancer (if any) is added. 24 h after transfection, a feeding solution and a glucose bolus is supplemented to avoid the limitation of nutrients. Depending on cell viability, which should not decrease below 50%, the supernatant is harvested five to seven days post transfection and subjected to antibody purification.
(§3) To compare transient gene expression rates always the same plasmids encoding for one distinct antibody were co-transfected.
(§4) To co-transfect two plasmids equimolarily, the ratio of the base pair number of one plasmid to the total base pair number was calculated and multiplied with the total amount of DNA (0.5 mg/L). Plasmid one has a size of 10530 bp and plasmid two has a size of 7184 bp and were solved in water to a final concentration of 1 mg/mL. For transfection of one liter cell culture, 297 μL of plasmid one and 203 μl of plasmid two were dissolved in 40 mL phosphate buffered saline (PBS) at room temperature. 1.25 mL JetPEI® solution was added and the solution was mixed well. After incubation for 10-15 min., the mixture was added to the cells. The cells were transfected in a batch containing the whole cell culture necessary for every experiment to avoid variance arising from different transfection efficiencies.
(§5) 80 mL of the transfected cell culture batch was added to a 125 ml shaker flask. For every experiment, two or three 125 mL shaker flasks were used as biological replicates and treated the same way. Three hours after transfection, cells were split into 125 mL shaker flasks and the cellular treatments with small molecules or ligands were started. Basal protein expression was determined by untreated control samples. To compare samples with the standard operating procedure, cells were also treated with VPA to a final concentration of 4 mM or 3 mM. VPA and its analogues were dissolved in double distilled water. […] Tumor necrosis factor (TNF) alpha was reconstituted with PBS supplemented with 0.1% BSA. Flagellin was dissolved in sterile double distilled water. The applied molecules were not added to the cultivation directly, but diluted in 16 mL medium pre-warmed to 36.5° C. and added to the cultivation thereafter.
(§6) 24 h after transfection a feeding solution at 36.5° C. and 3 mg/mL glucose were added to the cultivation.
as §1
(§7) Total concentration of the transiently expressed antibody was determined by a turbidimetric test. One mL cell suspension was transferred into an Eppendorf cup and centrifuged for 10 min. at 10,000 rpm (9,300 g).

HEK293F cells [4] = experiment: Transient gene expression in HEK293F cells: IgG concentration / titer (turbidimetric test); format: cell-based, human
Description: as §2, §3, §4, §5, §6
as §7, with “g). The supernatant was transferred into a new cup and subjected to Cobas Integra 400 plus (Roche) analysis. With comparison to internal standard the absolute concentration was calculated.” for “g).”

HDAC [5] = experiment: in situ HDAC activity fluorimetric assay in HEK293F cells; format: cell-based, human
Description: HDAC activity was determined by the in situ HDAC activity fluorimetric assay kit (Biovision) according to the manufacturer's instructions. HEK293F cells were suspended in F17 medium (Life Technologies) to a cell density of 5*10^5 cells/mL. One hundred micro liter culture was pipetted per well into a black ELISA plate. The plate was centrifuged at 1000 g for 5 min. The supernatant was discarded and the cells were resuspended in a reaction mix containing F17 medium, 1% HDAC substrate and the molecule tested towards HDAC inhibitory activity. 10 μM Trichostatin A was used as a positive control and the basal HDAC activity was determined by re-suspending the cells in F17 medium with 1% HDAC substrate. Furthermore, cells were resuspended in F17 medium without HDAC substrate as a background control. The HDAC activity assay was performed in triplicates for every sample as well as every control. The 96-well plate was incubated at 36.5° C., 80% humidity and 7% CO2 for one hour. During this time, the active HDACs deacetylate the HDAC substrate what releases the quenched fluorescent signal of the substrate. After incubation the fluorescent signal was analyzed by the infinite fluorescence plate reader (TECAN). The fluorescence signal of the samples and controls was normalized by subtracting the fluorescence signal of the background control. It is assumed that the fluorescent signal arising from deacetylation of the substrate directly correlates with HDAC activity.

Molecule: CCCC(CCC)C(N)=O [valpromide]
- cytotoxicity (HEK293F cells [1]; 3 mM): cytotoxic
- toxicity (remark in productivity cell) (HEK293F cells [1]; employed concentration 3 mM): toxic
- HDAC inhibitory activity (HDAC [2]): very weak to no HDAC inhibitory activity
- TGE enhancement (HEK293F cells [3]; 2 mM, in words): Weak TGE enhancement
- activity at 2000 µM (HEK293F cells [3]; Homo sapiens, HEK293F, employed concentration 2 mM, none=100, N=2, FIG. 4, read-out: relative cell specific productivity): 155%
- activity at 3000 µM (HEK293F cells [3]; Homo sapiens, HEK293F, employed concentration 3 mM, none=100, N=2, FIG. 4, read-out: relative cell specific productivity): 0%

Molecule: CCCC(CCC)C(=O)O [valproic acid, 2-propylpentanoic acid]
- relative IgG concentration (HEK293F cells [4]; 2 mM, VPA/2M2P combination study, none=100, N=3): 217%
- relative IgG concentration (HEK293F cells [4]; 2 mM, VPA/Quisinostat combination study, none=100, N=3): 217%
- final titer (HEK293F cells [4]; 3 mM, none 39.8, N=3): 68.8 mg/L
- relative titer (HEK293F cells [4]; 3 mM, none=100, N=1): 188%
- relative IgG concentration (HEK293F cells [4]; 4 mM, none=100, N=3, FIG. 6B): 173%
- relative IgG concentration (HEK293F cells [4]; 4 mM, none=100, N=3, FIG. 8B): 173%
- relative IgG concentration (HEK293F cells [4]; 4 mM, none=100, N=3, FIG. 9B): 173%
- growth inhibition and cell death (HEK293F cells [1]; in contrast to other HDACi tested): induce growth inhibition and cell death
- HDACi (HDAC [5]; 3 mM, N=3, FIG. 3A): 58%
- HDAC inhibition (HDAC [5]; yes/no, summary table): yes
- cell specific productivity with BAY11-7082 addition compared to the single treatment (HEK293F cells [3]; 15 μM BAY11-7082 added 24 h after transfection): significantly reduced
- specific productivity after 96 hours (HEK293F cells [3]; 3 mM, single treatment, N=3): 4.92 pg/cell/day
- activity at 500 µM (HEK293F cells [3]; Homo sapiens, HEK293F, 0.5 mM, sole enhancer, control=100, N=2, FIG. 1, read-out: relative cell specific productivity): 184%
- activity at 1000 µM (HEK293F cells [3]; Homo sapiens, HEK293F, 1 mM, sole enhancer, control=100, N=2, FIG. 1, read-out: relative cell specific productivity): 204%
- activity at 2000 µM (HEK293F cells [3]; Homo sapiens, HEK293F, 2 mM, VPA/2M2P combination study, none=100, N=3, read-out: relative cell specific productivity): 278%
- activity at 2000 µM (HEK293F cells [3]; Homo sapiens, HEK293F, 2 mM, VPA/Quisinostat combination study, none=100, N=3, read-out: relative cell specific productivity): 278%
- activity at 2000 µM (HEK293F cells [3]; Homo sapiens, HEK293F, 2 mM, sole enhancer, control=100, N=2, FIG. 1, read-out: relative cell specific productivity): 246%
- activity at 3000 µM (HEK293F cells [3]; Homo sapiens, HEK293F, 3 mM, single treatment, none=100, N=3, read-out: relative cell specific productivity): 237%
- activity at 3000 µM (HEK293F cells [3]; Homo sapiens, HEK293F, 3 mM, sole enhancer, control=100, N=2, FIG. 1, read-out: relative cell specific productivity): 284%
- activity at 3000 µM (HEK293F cells [3]; Homo sapiens, HEK293F, 3 mM, transfected control=100, N=3, FIG. 3B, read-out: relative cell specific productivity): 316%
- activity at 4000 µM (HEK293F cells [3]; Homo sapiens, HEK293F, 4 mM, sole enhancer, control=100, N=2, FIG. 1, read-out: relative cell specific productivity): 273%
- activity at 6000 µM (HEK293F cells [3]; Homo sapiens, HEK293F, 6 mM, sole enhancer, control=100, N=2, FIG. 1, read-out: relative cell specific productivity): 223%
- activity at 4000 µM (HEK293F cells [3]; Homo sapiens, HEK293F, employed concentration 4 mM, none=100, N=2, FIG. 2B, read-out: relative cell specific productivity): 326%
- activity at 4000 µM (HEK293F cells [3]; Homo sapiens, HEK293F, employed concentration 4 mM, none=100, N=2, FIG. 4, read-out: relative cell specific productivity): 315%
- Mean cell specific productivity (HEK293F cells [3]; conc. 3 mM, untreated 1.71): 5.4 (3 mM) pg/cell/24 h
- Effect on titer/SPR (HEK293F cells [3]; summary table, in words): strong

B1: Flagellin: Flagellin from Salmonella typhimurium, TLR5 agonist, NFκB activator (protein, UniProt P06179 2-495, looked up)
Flagellin: AQVINTNSLSLLTQNNLNKSQSALGTAIERLSSGLRINSAKDDAAGQAIANRFTANIKGLTQASRNANDGISIAQTTEGALNEINNNLQRVRELAVQSANSTNSQSDLDSIQAEITQRLNEIDRVSGQTQFNGVKVLAQDNTLTIQVGANDGETIDIDLKQINSQTLGLDTLNVQQKYKVSDTAATVTGYADTTIALDNSTFKASATGLGGTDQKIDGDLKFDDTTGKYYAKVTVTGGTGKDGYYEVSVDKTNGEVTLAGGATSPLTGGLPATATEDVKNVQVANADLTEAKAALTAAGVTGTASVVKMSYTDNNGKTIDGGLAVKVGDDYYSATQNKDGSISINTTKYTADDGTSKTALNKLGGADGKTEVVSIGGKTYAASKAEGHNFKAQPDLAEAAATTTENPLQKIDAALAQVDTLRSDLGAVQNRFNSAITNLGNTVNNLTSARSRIEDSDYATEVSNMSRAQILQQAGTSVLAQANQVPQNVLSLLR
- relative IgG concentration (HEK293F cells [4]; 2 ng/mL, none=100, N=3, FIG. 6B): 133%
- relative IgG concentration (HEK293F cells [4]; 2 ng/mL, none=100, N=3, FIG. 8B): 128%
- toxicity (HEK293F cells [1]; compared amongst NFκB activators): mildest toxicity
- relative cell specific productivity (HEK293F cells [3]; 2 ng/mL, none=100, N=3, FIG. 6A): 135%
- relative cell specific productivity (HEK293F cells [3]; 2 ng/mL, none=100, N=3, FIG. 8A): 135%
- specific productivity after 96 hours (HEK293F cells [3]; 2 ng/mL, single treatment, N=3): 2.27 pg/cell/day
- relative cell specific productivity (HEK293F cells [3]; 2 ng/mL, single treatment, none=100, N=3): 134%
- relative cell specific productivity (HEK293F cells [3]; 10 ng/mL, none=100, N=2, FIG. 5): 154%
- TGE enhancement after BAY11-7082 treatment compared to the corresponding single treatment (HEK293F cells [3]; BAY11-7082 added 24 hours after stimulation): significantly reduced
